Key:
[1] = species as printed in the value; cited from earlier work
[2] = known status of the compound; cited from earlier work
AMV DNA polymerase [3] = assay: Metal requirements for catalysis by AMV DNA polymerase; type: biochemical, avian myeloblastosis virus; details: poly (A).oligo (dT)
Experimental: (§1) All known DNA polymerases require either Mg^2+ or Mn^2+ as an added divalent cation for activity. AMV DNA polymerase used Mg^2+ as an added divalent cation and the maximum rate of polymerization with poly (A).oligo (dT) was attained at 5 mM Mg^2+. […] Thymidine monophosphate incorporation with Be^2+ was less than 0.3% of that obtained with 5 mM Mg^2+.

AMV DNA polymerase [4] = assay: Fidelity of in vitro DNA synthesis (error frequency) with AMV DNA polymerase copying synthetic polynucleotide templates; details: for Class: Table 1, classes 1-3 not defined
From the text: In this invention, the ability of carcinogens to decrease the fidelity of in vitro DNA synthesis will be used to screen for carcinogenic or mutagenic agents. The system uses synthetic polynucleotides of defined composition which may be copied in the test tubes with procaryotic, eucaryotic or viral DNA polymerases. The use of synthetic polynucleotides of defined composition allows the measurement of the simultaneous incorporation of the correct, complementary nucleotide and an incorrect, non-complementary nucleotide. The correct nucleotide is labeled with [α-^32 P] of low specific activity and the incorrect nucleotide is labeled with [^3 H] of high specific activity. Through this double labeled reaction it is possible to determine the simultaneous incorporation of both nucleotides and thus to determine an error frequency. The error frequency may be defined as the ratio of the incorrect/correct nucleotide incorporation. Agents which increase this error frequency may be scored as positive. […] Agents which score positive would be checked using different templates to underscore the positive results. In this system different polymerases will be used as well as different templates. One would expect that most carcinogens would change the fidelity of DNA synthesis with different polymerases as well as with different templates though this need not be the case.
Each assay will consist of a polymerase, a polynucleotide template that only contains one or two nucleotides, a complementary nucleotide and a non-complementary nucleotide as well as magnesium. Both of the nucleotides will be labeled by radioactive precursors and the ratio between the two is to be used for a measure of error frequency in the system. In instances where a template requires two complementary nucleotides, only one will be radioactively labeled.
Reactions (total volume 0.05 ml) which measured complementary nucleotide incorporation contained 50 mM Tris-HCL (pH 8.0), 20 mM KCl, 5 mM dithiothreitol, 5 mM MgCl2, 2μg BSA, […] [α-^32 P] -dTTP (60 dpm/pmole), 1μg poly (A).oligo (dT) (1:1.5 mass ratio), and 0.45 μg of AMV DNA polymerase. For simultaneous quantitation of complementary and non-complementary nucleotide incorporation each reaction was modified to contain 26μM [α-^32 P]dTTP (12 dpm/pmole) and 23μM [^3 H]-dCTP (50,000 dpm/pmole). […] Metals were added directly to the reaction mixture as aqueous solutions of chloride salts. All reactions were incubated for 60 min. at 37° C. Incorporation of radioactive nucleotides into an acid-insoluble and alkali-resistant product was determined by using the precipitation-solubilization procedure as described by Battula and Loeb. All experiments were performed in triplicate and the averages were determined.
In order to determine the effect of different metals on the accuracy of DNA replication, metal cations were added as chloride salts directly to the polymerase reaction. In these experiments, poly (A).oligo (dT) was the template-primer and the simultaneous incorporation of complementary nucleotide, [α-^32 P]-dTMP, and the non-complementery nucleotide, [^3 H]-dCMP, was determined.
The effect of metal salts on the fidelity of DNA synthesis was examined by testing each of the metal salts at a minimum of seven different concentrations.

several DNA polymerases = type: biochemical; details: preliminary results
Experimental: as §1

[5] = system: sea urchin nuclear DNA polymerase; assay: Fidelity of DNA synthesis with sea urchin nuclear DNA polymerase; type: biochemical; details: template poly (dA).oligo (dT)
From the text: It is one of 15 carcinogens officially listed by the U.S. government as possibly being carcinogenic in humans.

[6] = 2 mM added cation + Mg^2+ 5 mM, poly (A).oligo (dT)
[7] = 5 mM added cation + Mg^2+ 5 mM, poly (A).oligo (dT)
[8] = 10 mM added cation + Mg^2+ 5 mM, poly (A).oligo (dT)
[9] = Beryllium Chloride 1 mM, poly (A) . oligo (dT), non-complementary rGTP
[10] = Beryllium Chloride 1 mM, poly (C) . oligo (dG), non-complementary dATP
[11] = Beryllium Chloride 1 mM, poly d(A-T), non-complementary dCTP
[12] = Beryllium Chloride 2 mM, poly (A) . oligo (dT), non-complementary rGTP
[13] = Beryllium Chloride 2 mM, poly (C) . oligo (dG), non-complementary dATP
[14] = Beryllium Chloride 3 mM, poly d(A-T), non-complementary dCTP
[15] = Beryllium Chloride 4 mM, poly (C) . oligo (dG), non-complementary dATP
[16] = Beryllium Chloride 5 mM, poly (A) . oligo (dT), non-complementary rGTP
[17] = Beryllium Chloride 5 mM, poly (C) . oligo (dG), non-complementary dATP
[18] = Beryllium Chloride 5 mM, poly d(A-T), non-complementary dCTP
[19] = Beryllium Chloride 10 mM, poly (A) . oligo (dT), non-complementary rGTP

[Be+2].[Cl-].[Cl-] [BeCl2, beryllium chloride]
carcinogenicity in animals [1]: induces pulmonary carcinomas in monkey and osteogenic sarcomas in rabbits | Carcinogen or Mutagen [2]: + | Thymidine monophosphate incorporation relative to that obtained with 5 mM Mg^2+ (AMV DNA polymerase [3]; Be^2+ in the absence of Mg^2+, 60 min): less than 0.3% | ability to substitute for Mg^2+ as added divalent cation (AMV DNA polymerase [3]; absence of Mg^2+, Be^2+ up to 15 mM): did not result in detectable poly (dT) synthesis | Complementary Nucleotide (pmoles dTMP) (AMV DNA polymerase [4]; [6]): 291 pmol | Non-Complementary Nucleotide (pmoles dCMP) (AMV DNA polymerase [4]; [6]): 0.372 pmol | Error Frequency (AMV DNA polymerase [4]; 2 mM added cation + Mg^2+ 5 mM, poly (A).oligo (dT), dCMP/dTMP): 1/782 | Complementary Nucleotide (pmoles dTMP) (AMV DNA polymerase [4]; [7]): 133 pmol | Non-Complementary Nucleotide (pmoles dCMP) (AMV DNA polymerase [4]; [7]): 0.294 pmol | Error Frequency (AMV DNA polymerase [4]; 5 mM added cation + Mg^2+ 5 mM, poly (A).oligo (dT), dCMP/dTMP): 1/453 | Complementary Nucleotide (pmoles dTMP) (AMV DNA polymerase [4]; [8]): 8.6 pmol | Non-Complementary Nucleotide (pmoles dCMP) (AMV DNA polymerase [4]; [8]): 0.114 pmol | Error Frequency (AMV DNA polymerase [4]; 10 mM added cation + Mg^2+ 5 mM, poly (A).oligo (dT), dCMP/dTMP): 1/75 | Complementary Nucleotide Incorporation (AMV DNA polymerase [4]; [9]): 568 pmol | Error Frequency (AMV DNA polymerase [4]; [9]): 1/6104 | Non-Complementary Nucleotide Incorporation (AMV DNA polymerase [4]; [9]): 0.093 pmol | Complementary Nucleotide Incorporation (AMV DNA polymerase [4]; [10]): 181 pmol | Error Frequency (AMV DNA polymerase [4]; [10]): 1/1649 | Non-Complementary Nucleotide Incorporation (AMV DNA polymerase [4]; [10]): 0.110 pmol | Complementary Nucleotide Incorporation (AMV DNA polymerase [4]; [11]): 209 pmol | Error Frequency (AMV DNA polymerase [4]; [11]): 1/1306 | Non-Complementary Nucleotide Incorporation (AMV DNA polymerase [4]; [11]): 0.160 pmol | Complementary Nucleotide Incorporation (AMV DNA polymerase [4]; [12]): 503 pmol | Error Frequency (AMV DNA polymerase [4]; [12]): 1/2704 | Non-Complementary Nucleotide Incorporation (AMV DNA polymerase [4]; [12]): 0.186 pmol | Complementary Nucleotide Incorporation (AMV DNA polymerase [4]; [13]): 81 pmol | Error Frequency (AMV DNA polymerase [4]; [13]): 1/1025 | Non-Complementary Nucleotide Incorporation (AMV DNA polymerase [4]; [13]): 0.079 pmol | Complementary Nucleotide Incorporation (AMV DNA polymerase [4]; [14]): 137 pmol | Error Frequency (AMV DNA polymerase [4]; [14]): 1/979 | Non-Complementary Nucleotide Incorporation (AMV DNA polymerase [4]; [14]): 0.140 pmol | Complementary Nucleotide Incorporation (AMV DNA polymerase [4]; [15]): 57 pmol | Error Frequency (AMV DNA polymerase [4]; [15]): 1/919 | Non-Complementary Nucleotide Incorporation (AMV DNA polymerase [4]; [15]): 0.062 pmol | Complementary Nucleotide Incorporation (AMV DNA polymerase [4]; [16]): 128 pmol | Error Frequency (AMV DNA polymerase [4]; [16]): 1/487 | Non-Complementary Nucleotide Incorporation (AMV DNA polymerase [4]; [16]): 0.263 pmol | Complementary Nucleotide Incorporation (AMV DNA polymerase [4]; [17]): 64 pmol | Error Frequency (AMV DNA polymerase [4]; [17]): 1/831 | Non-Complementary Nucleotide Incorporation (AMV DNA polymerase [4]; [17]): 0.077 pmol | Complementary Nucleotide Incorporation (AMV DNA polymerase [4]; [18]): 97 pmol | Error Frequency (AMV DNA polymerase [4]; [18]): 1/689 | Non-Complementary Nucleotide Incorporation (AMV DNA polymerase [4]; [18]): 0.140 pmol | Complementary Nucleotide Incorporation (AMV DNA polymerase [4]; [19]): 52 pmol | Error Frequency (AMV DNA polymerase [4]; [19]): 1/149 | Non-Complementary Nucleotide Incorporation (AMV DNA polymerase [4]; [19]): 0.349 pmol | Class (AMV DNA polymerase [4]; template poly (A).oligo (dT)): 1 | effect on error frequency (in words) (AMV DNA polymerase [4]; poly (A).oligo (dT), dTMP complementary, dCMP non-complementary): error frequency increased | Metal Concentration which yielded the largest observed change in error rate (AMV DNA polymerase [4]; template poly (A).oligo (dT)): 10 mM | effect on the fidelity of DNA synthesis (in words) (AMV DNA polymerase [4]; various templates): decreases the fidelity

[Cl-].[Cl-].[Co+2] [CoCl2]
Carcinogen or Mutagen [2]: + | metal activator function (several DNA polymerases): serve as metal activators with several DNA polymerases | Class (AMV DNA polymerase [4]; template poly (C).oligo (dG)): 1 | Metal Concentration which yielded the largest observed change in error rate (AMV DNA polymerase [4]; template poly (C).oligo (dG)): 4 mM | effect on the fidelity of DNA synthesis (in words) (AMV DNA polymerase [4]; various templates): alter the fidelity

[Cl][Ni][Cl] [NiCl2]
metal activator function (several DNA polymerases): serve as metal activators with several DNA polymerases | Class (AMV DNA polymerase [4]; template poly (C).oligo (dG)): 1 | Metal Concentration which yielded the largest observed change in error rate (AMV DNA polymerase [4]; template poly (C).oligo (dG)): 8 mM | effect on the fidelity of DNA synthesis (in words) (AMV DNA polymerase [4]; various templates): alter the fidelity

O=C1CCO1 [β-propiolactone]
carcinogenicity in animals [1]: carcinogen in mice, rats and hamsters | effect on the fidelity of DNA synthesis (in words) (AMV DNA polymerase [4]; template poly (dA).oligo (dT)): decreases the fidelity | effect on the fidelity of DNA synthesis (in words) [5]: decreases the fidelity
